Where two headings read alike, the source gives them in different places.
Biological target: T1, hmGlu5 (Homo sapiens, UniProt P41594)
T1 construct: expressed in transfected cells; host or cells: HEK 293A
Assay: mGlu5 Ca2+ flux assay in HEK 293A cells (negative allosteric modulation of glutamate EC80 response)
Format: cell-based
Settings: for remaining activity at 30 µM: HEK293-A, read-out: hmGlu5 NAM Emin (%); for IC50: HEK 293A cells, Ca2+ flux, glutamate EC80, >10,000 = decrease without plateau, read-out: hmGlu5 NAM IC50
Description: HEK 293A cells stably expressing either rat or human mGlu5 were plated in black-walled, clear-bottomed, poly-D-lysine coated 384-well plates in 20 μL of assay medium (DMEM containing 10% dialyzed FBS, 20 mM HEPES, 100 units/mL penicillin/streptomycin plus 250 ng/mL Fungizone, and 1 mM sodium pyruvate) at a density of 20K cells/well. The cells were grown overnight at 37° C. in the presence of 5% CO2. The next day, medium was removed and the cells incubated with 20 μL of 2.3 μM Fluo-4, AM prepared as a 2.3 mM stock in DMSO and mixed in a 1:1 ratio with 10% (w/v) pluronic acid F-127 and diluted in assay buffer (Hank's balanced salt solution, 20 mM HEPES, and 2.5 mM probenecid) for 45 minutes at 37° C. Dye was removed, 20 μL of assay buffer was added, and the plate was incubated for 5 minutes at room temperature.
Ca^2+ flux was measured using the Functional Drug Screening System (FDSS7000, Hamamatsu, Japan). After establishment of a fluorescence baseline for about 3 seconds, the compounds of the present invention were added to the cells, and the response in cells was measured. 2.3 minutes later an EC20 concentration of the mGlu5 receptor agonist glutamate was added to the cells, and the response of the cells was measured for 1.9 minutes; an EC80 concentration of agonist was added and readings taken for an additional 1.7 minutes. All test compounds were dissolved and diluted to a concentration of 10 mM in 100% DMSO. Compounds were then serially diluted 1:3 in DMSO into 10 point concentration response curves, transferred to daughter plates, and further diluted into assay buffer to a 2× stock. Calcium fluorescence measures were recorded as fold over basal fluorescence; raw data was then normalized to the maximal response to glutamate. Antagonism of the agonist response of the mGlu5 receptor in the present invention was observed as a decrease in response to nearly maximal concentrations of glutamate in the presence of compound compared to the response to glutamate in the absence of compound.
The raw data file containing all time points was used as the data source in the analysis template. This was saved by the FDSS as a tab-delimited text file. Data were normalized using a static ratio function (F/F0) for each measurement of the total 360 values per well divided by each well's initial value. Data were then reduced to peak amplitudes (Max−Initial Min) using a time range that starts approximately 3 seconds prior to the glutamate EC20/EC80 addition and continues for approximately 90-120 seconds. This is sufficient time to capture the peak amplitude of the cellular calcium response. Individual amplitudes were expressed as % EMax by multiplying each amplitude by 100 and then dividing the product by the mean of the amplitudes derived from the glutamate ECMax-treated wells. IC50 values for test compounds were generated by fitting the normalized values versus the log of the test compound concentration (in mol/L) using a 4 parameter logistic equation where none of the parameters were fixed. Each of the three values collected at each concentration of test compound were weighted evenly.
For NAMs with a CRC that plateaus above 10% Glu Max, the IC50 values are reported, the compound is designated a “partial NAM” and the % Glu Max is reported. […] Compounds without measurable activity are designated as “>30,000 nM” since the top concentration of compound tested in the assay is 30 μM. […]

T1 sequence (P41594 21-1212): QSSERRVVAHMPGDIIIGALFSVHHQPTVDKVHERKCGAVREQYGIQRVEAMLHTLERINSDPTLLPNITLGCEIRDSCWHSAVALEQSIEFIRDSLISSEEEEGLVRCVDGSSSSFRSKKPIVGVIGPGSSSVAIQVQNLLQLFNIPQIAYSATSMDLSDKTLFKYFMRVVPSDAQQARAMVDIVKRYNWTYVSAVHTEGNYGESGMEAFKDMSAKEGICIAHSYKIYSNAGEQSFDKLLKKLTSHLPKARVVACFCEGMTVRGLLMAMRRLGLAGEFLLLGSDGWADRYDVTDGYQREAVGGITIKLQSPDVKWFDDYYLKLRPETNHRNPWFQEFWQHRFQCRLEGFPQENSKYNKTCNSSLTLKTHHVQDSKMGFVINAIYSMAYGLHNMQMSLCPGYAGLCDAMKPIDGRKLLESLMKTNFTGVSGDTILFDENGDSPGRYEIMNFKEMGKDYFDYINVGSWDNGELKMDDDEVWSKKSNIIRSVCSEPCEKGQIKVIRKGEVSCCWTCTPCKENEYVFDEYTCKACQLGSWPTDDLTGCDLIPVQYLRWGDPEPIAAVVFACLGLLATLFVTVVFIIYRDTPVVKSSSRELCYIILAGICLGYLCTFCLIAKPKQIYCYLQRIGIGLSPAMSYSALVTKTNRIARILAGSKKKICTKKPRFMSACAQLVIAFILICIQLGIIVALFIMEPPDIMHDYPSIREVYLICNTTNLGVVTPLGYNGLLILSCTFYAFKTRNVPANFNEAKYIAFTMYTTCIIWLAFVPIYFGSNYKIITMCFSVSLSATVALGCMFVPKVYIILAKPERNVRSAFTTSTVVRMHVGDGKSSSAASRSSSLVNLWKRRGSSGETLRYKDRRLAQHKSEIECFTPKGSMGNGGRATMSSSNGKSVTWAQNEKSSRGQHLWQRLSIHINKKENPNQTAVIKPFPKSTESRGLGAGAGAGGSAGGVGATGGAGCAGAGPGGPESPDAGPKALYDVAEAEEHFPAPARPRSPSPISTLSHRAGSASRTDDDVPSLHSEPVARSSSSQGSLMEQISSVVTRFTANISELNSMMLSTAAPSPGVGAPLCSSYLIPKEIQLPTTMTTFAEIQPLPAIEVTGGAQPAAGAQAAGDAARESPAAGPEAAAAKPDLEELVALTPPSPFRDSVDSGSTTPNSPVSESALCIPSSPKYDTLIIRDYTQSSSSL

Row | Compound | remaining activity at 30 µM (% Glu max at 30 μM) [%] | IC50 [nM] | remaining activity at 30 µM [%]
1 | COc1c(-c2cnn(C(F)F)c2)cc(-c2noc(-c3ccc(F)cn3)n2)nc1C [Compound 12, 3-(4-(1-(difluoromethyl)-1H-pyrazol-4-yl)-5-methoxy-6-methylpyridin-2-yl)-5-(5-fluoropyridin-2-yl)-1,2,4-oxadiazole] | 2 | 1110 | –
2 | CCn1cc(-c2cc(-c3nnc(-c4ccc(F)cn4)o3)nc(C)c2F)cn1 [Compound 75, 2-(4-(1-ethyl-1H-pyrazol-4-yl)-5-fluoro-6-methylpyridin-2-yl)-5-(5-fluoropyridin-2-yl)-1,3,4-oxadiazole] | 2 | 591 | –
3 | CCn1cc(-c2cc(-c3noc(-c4nc(C)cs4)n3)nc(C)c2F)cn1 [Compound 17, 3-(4-(1-ethyl-1H-pyrazol-4-yl)-5-fluoro-6-methylpyridin-2-yl)-5-(4-methylthiazol-2-yl)-1,2,4-oxadiazole] | 25 | > 10000 | –
4 | Cc1nc(-c2noc(-c3ccc(F)cn3)n2)cc(-c2cnccc2Cl)c1F [Compound 69, 3-(4-chloro-5′-fluoro-6′-methyl-[3,4′-bipyridin]-2′-yl)-5-(5-fluoropyridin-2-yl)-1,2,4-oxadiazole] | 3 | 109 | –
5 | Cc1ccncc1-c1cc(-c2nc(-c3cccc(F)c3)c[nH]2)nc(C)c1F [Compound 63, 3′-fluoro-6′-(4-(3-fluorophenyl)-1H-imidazol-2-yl)-2′,4-dimethyl-3,4′-bipyridine] | 4 | 1090 | –
6 | Cc1nc(-c2nnc(-c3cccnc3)o2)cc(-c2cncc(F)c2)c1F [Compound 80, 2-(5,5′-difluoro-6′-methyl-[3,4′-bipyridin]-2′-yl)-5-(pyridin-3-yl)-1,3,4-oxadiazole] | – | 3340 | 58
7 | Cc1nc(-c2noc(-c3ccc(F)cc3F)n2)cc(-c2cncc(F)c2)c1F [Compound 49, 3-(5,5′-difluoro-6′-methyl-[3,4′-bipyridin]-2′-yl)-5-(2,4-difluorophenyl)-1,2,4-oxadiazole] | 3 | 624 | –
8 | COc1cncc(-c2cc(-c3noc(-c4ccc(F)cn4)n3)nc(C)c2F)c1 [Compound 30, 3-(5′-fluoro-5-methoxy-6′-methyl-[3,4′-bipyridin]-2′-yl)-5-(5-fluoropyridin-2-yl)-1,2,4-oxadiazole] | 3 | 493 | –
9 | Cc1nc(-c2noc(-c3cccc(Cl)c3)n2)cc(-c2cncc(F)c2)c1F [Compound 44, 5-(3-chlorophenyl)-3-(5,5′-difluoro-6′-methyl-[3,4′-bipyridin]-2′-yl)-1,2,4-oxadiazole] | – | 5800 | 34
10 | Cc1nc(-c2noc(-c3ccc(F)cn3)n2)cc(-c2ccc(C3CC3)nc2)c1F [Compound 31, 3-(6-cyclopropyl-5′-fluoro-6′-methyl-[3,4′-bipyridin]-2′-yl)-5-(5-fluoropyridin-2-yl)-1,2,4-oxadiazole] | 20 | 3090 | –
11 | Cc1ccncc1-c1cc(-c2noc(-c3cccc(F)c3)n2)nc(C)c1F [Compound 20, 3-(5′-fluoro-4,6′-dimethyl-[3,4′-bipyridin]-2′-yl)-5-(3-fluorophenyl)-1,2,4-oxadiazole] | 2 | 49 | –
12 | Cc1nc(-c2nc(-c3cscn3)no2)cc(-c2cncc(F)c2)c1F [Compound 53, 5-(5,5′-difluoro-6′-methyl-[3,4′-bipyridin]-2′-yl)-3-(thiazol-4-yl)-1,2,4-oxadiazole] | 23 | 481 | –
13 | COc1c(-c2cnccc2C)cc(-c2noc(-c3ccc(F)cn3)n2)nc1C [Compound 10, 5-(5-fluoropyridin-2-yl)-3-(5′-methoxy-4,6′-dimethyl-[3,4′-bipyridin]-2′-yl)-1,2,4-oxadiazole] | 2 | 641 | –
14 | Cc1ccc(-c2nnc(-c3cc(-c4cncc(F)c4)c(F)c(C)n3)o2)nc1 [Compound 57, 2-(5,5′-difluoro-6′-methyl-[3,4′-bipyridin]-2′-yl)-5-(5-methylpyridin-2-yl)-1,3,4-oxadiazole] | – | 1080 | 4
15 | COc1c(-c2cncc(F)c2)cc(-c2nc(-c3ccc(F)cn3)no2)nc1C [Compound 14, 5-(5-fluoro-5′-methoxy-6′-methyl-[3,4′-bipyridin]-2′-yl)-3-(5-fluoropyridin-2-yl)-1,2,4-oxadiazole] | 2 | 339 | –
16 | Cc1csc(-c2nnc(-c3cc(-c4cncc(F)c4)c(F)c(C)n3)o2)n1 [Compound 83, 2-(5,5′-difluoro-6′-methyl-[3,4′-bipyridin]-2′-yl)-5-(4-methylthiazol-2-yl)-1,3,4-oxadiazole] | – | 600 | 2
17 | Cc1nc(-c2nc(-c3ccc(F)cn3)no2)cc(-c2cncc(F)c2)c1F [Compound 59, 5-(5,5′-difluoro-6′-methyl-[3,4′-bipyridin]-2′-yl)-3-(5-fluoropyridin-2-yl)-1,2,4-oxadiazole] | 4 | 51 | –

Continued, in another order:

Row | remaining activity at 30 µM (% Glu max at 30 μM) [%] | IC50 [nM] | Compound | remaining activity at 30 µM [%]
18 | 51 | > 10000 | Cc1nc(-c2noc(C3CCCCC3)n2)cc(-c2cncc(F)c2)c1F [Compound 36, 5-cyclohexyl-3-(5,5′-difluoro-6′-methyl-[3,4′-bipyridin]-2′-yl)-1,2,4-oxadiazole] | –
19 | 2 | 308 | Cc1ccncc1-c1cc(-c2noc(-c3cscn3)n2)nc(C)c1F [Compound 27, 3-(5′-fluoro-4,6′-dimethyl-[3,4′-bipyridin]-2′-yl)-5-(thiazol-4-yl)-1,2,4-oxadiazole] | –
20 | 11 | 917 | Cc1cc(-c2cncc(F)c2)cc(-c2noc(-c3nc(C)cs3)n2)n1 [Compound 72, 3-(5-fluoro-6′-methyl-[3,4′-bipyridin]-2′-yl)-5-(4-methylthiazol-2-yl)-1,2,4-oxadiazole] | –
21 | 3 | 245 | Cc1ccnc(-c2nc(-c3cc(-c4cnccc4C)c(F)c(C)n3)no2)c1 [Compound 88, 3-(5′-fluoro-4,6′-dimethyl-[3,4′-bipyridin]-2′-yl)-5-(4-methylpyridin-2-yl)-1,2,4-oxadiazole] | –
22 | 2 | 47 | Cc1nc(-c2n[nH]c(-c3ccc(F)cc3)n2)cc(-c2cncc(F)c2)c1F [Compound 99, 3′,5-difluoro-6′-(5-(4-fluorophenyl)-1H-1,2,4-triazol-3-yl)-2′-methyl-3,4′-bipyridine] | –
23 | 3 | 562 | COCCOc1c(-c2cncc(F)c2)cc(-c2noc(-c3ccc(F)cn3)n2)nc1C [Compound 54, 3-(5-fluoro-5′-(2-methoxyethoxy)-6′-methyl-[3,4′-bipyridin]-2′-yl)-5-(5-fluoropyridin-2-yl)-1,2,4-oxadiazole] | –
24 | 3 | 138 | Cc1nc(-c2nnc(-c3ccc(F)cn3)o2)cc(-c2cnccc2Cl)c1F [Compound 77, 2-(4-chloro-5′-fluoro-6′-methyl-[3,4′-bipyridin]-2′-yl)-5-(5-fluoropyridin-2-yl)-1,3,4-oxadiazole] | –
25 | 12 | 1070 | Cc1nc(-c2noc(-c3ccncc3)n2)cc(-c2cncc(F)c2)c1F [Compound 51, 3-(5,5′-difluoro-6′-methyl-[3,4′-bipyridin]-2′-yl)-5-(pyridin-4-yl)-1,2,4-oxadiazole] | –

From patent US20250026743A1, “HETEROARYL-LINKED ANALOGS AS MGLU5 NEGATIVE ALLOSTERIC MODULATORS AND METHODS OF MAKING AND USING THE SAME” (Vanderbilt University, priority 2021, published 2025)
